What was measured:
[1] = Survival of mice on acute cooling; type: in vivo; details: i.p. 1 hour before, 80 mg/kg (invention), 64 mg/kg (ester), 17 mg/kg (sodium succinate)
Protocol: The activity of the compound according to the present invention was studied in experiments on animals. The effectivemess of the compound according to the present invention was studied for resistance against an acute cold effect in comparison with conventional preparations such as butanedioic acid mono[(2-dimethylamino)ethyl ester] and sodium succinate.
The experiments were carried out on male mice (tetrahybdrids) with a body mass of 18-20 g which were placed into a cold chamber at a temperature of -15t to -17° C. in separate plastic cages slightly limiting their activity. […] The preparations were administered intraperiotoneally 1 hour before the cold effect the control animals were administered with a physiological solution.

Glutamatedehydrogenase = experiment: Activity of glutamatedehydrogenase in myocardium upon low-temperature treatment; type: in vivo, mice; details: 2.5 hours at -14° C.; 80 mg/kg (invention) or 64 mg/kg (ester); control 68.8 ± 1.5
Protocol: (§2) The preparations were administered one hour before the standard low-temperature treatment (-14° C.) in doses of 80 mg/kg of the compound according to the present invention and 64 mg/kg of the prior art compound-butanedioic acid mono[(2-dimethylamino)-ethyl ester].

[2] = Maximum duration of mice lifespan upon testing cold treatment (Le Blanc adaptation procedure); type: in vivo; details: with preliminary adaptation; 80 mg/kg (invention) or 64 mg/kg (ester); adaptation alone 6.0 ± 0.3
Protocol: (§1) To elucidate the effect of the compound according to the present invention on the adaptation phenomenon, experiments on male mice with a body mass of 18-20 g were carried out in conformity with the Le Blanc procedure according to which the mice were placed into a cold chamber (at -17° C.) for 10 minutes ever hour over the period of 9-10 hours. After one day the maximum lifespan of the mice at -17° C. was assessed along with the content of glucose in blood and of glycogen in organs upon a predetermined cold treatment (2.5 hours a -14° C.). The compound according to the present invention and butanedioic acid mono[(2-dimethylamino)-ethyl ester] (in doses of 80 and 64 mg/kg respectively) were introduced immediately after a series of short-time cold effects. In a number of experiments the compound according to the present invention was administered 1 hour prior to the testing (2.5 h) cold effect.

Pyruvatedehydrogenase = experiment: Activity of pyruvatedehydrogenase in myocardium upon low-temperature treatment; type: in vivo, mice; details: 2.5 hours at -14° C.; 80 mg/kg (invention) or 64 mg/kg (ester); control 56.6 ± 1.1
Protocol: as §2

[3] = Blood glucose and organ glycogen upon predetermined (2.5 h) cold treatment (adaptation experiment); type: in vivo, mice; details: adaptation + preparation immediately after adaptation, 80 mg/kg (invention) or 64 mg/kg (ester), 2.5 h at -14° C.
Protocol: as §1

[4] = Biochemical substrates in mice upon preset (2.5 hours) low-temperature treatment; details: 2.5 hours at -14° C., 1 hour after 80 mg/kg (invention) or 64 mg/kg (ester)
Protocol: as §2

Succinatedehydrogenase = experiment: Activity of succinatedehydrogenase in myocardium upon low-temperature treatment; type: in vivo, mice; details: 2.5 hours at -14° C.; 80 mg/kg (invention) or 64 mg/kg (ester); control 72.3 ± 1.6
Protocol: as §2

[5] = Stresso-protective activity, motion stress in slowly rotating drum for 48 hours; type: in vivo, rats; details: 48 h motion stress
Protocol: In evaluation of the stresso-protective activity of the compound according to the present invention as a model use was made of a procedure of depriving rats of sleep, meals and water in a slowly rotating drum (at the speed of 0.2 km/h).
The experiments were carried out on 42 nondescript male rats. In parallel experiments the antistress activity of butanedioic acid mono[(2-dimethylamino)ethyl ester] was studied; as the reference prepartion use was made of the prior art tranquilizer--diazepam which was used in the experiments for this very indication.
4 groups of animals were tested in parallel. Groups I and II were placed for 48 hours into a slowly rotating drum, groups III and IV were under normal conditions and were deprived only of meals and water. The compound according to the present invention and butanedioic acid mono[(2-dimethylamino)ethyl ester] were administered intraperitoneally in the dose of 10 mg/kg four times (2 times a day) in the volume of 2.5 ml/kg under the conditions of motion stress (Group I of the animals) and under normal conditions (Group III of animals). The control animals--Group II (active control) and Group IV (passive control) were given a physiological solution. The efficiency of the compound according to the present invention, of butanedioic acid mono[(2-dimethylamino)ethyl ester] and of diazepam was estimated on the basis of a set of characteristics showing the functional activity of the central nervous system, physical fitness and development of basic symptoms of the stress-syndrome.
The residence of control rats in a slowly-rotating drum over 48 hours results in a noticeable deterioration of all the studied characteristics, especially those of higher nervous activity (learning) and development of stress-syndrome. The state of control animals was characterized by lowering of the overall behavioural activity as determined by the "open-field" test (37±15%) with reference to the passive control level, by a reduction in the speed of development of a conventional avoiding response in an aqueous labyrinth (58±15%), by an increase in the number of mistakes during the teaching time (175±25%), lowering of the ultimate physical endurance as determined by the swimming-with-load test (the load is equal to 10% by mass of the body (70±17%), adrenal hypertrophy (146±16%), thymus atrophy (49±9%) and formation of ulcers on the stomach mucous membrane (5.25±1.0%).

NADH2 --dehydrogenase = experiment: Activity of NADH2-dehydrogenase in myocardium upon low-temperature treatment; type: in vivo, mice; details: 2.5 hours at -14° C.; 80 mg/kg (invention) or 64 mg/kg (ester); control 69.8 ± 1.5
Protocol: as §2

[6] = test system: NAD-Ph--H2 --dehydrogenase; experiment: Activity of NAD-Ph-H2-dehydrogenase in myocardium upon low-temperature treatment; type: in vivo, mice; details: 2.5 hours at -14° C.; 80 mg/kg (invention) or 64 mg/kg (ester); control 72.1 ± 1.4
Protocol: as §2

Isocitratedehydrogenase = experiment: Activity of isocitratedehydrogenase in myocardium upon low-temperature treatment; type: in vivo, mice; details: 2.5 hours at -14° C.; 80 mg/kg (invention) or 64 mg/kg (ester); control 49.5 ± 1.2
Protocol: as §2

[7] = test system: Glucose-6-phosphatedehydrogenase; experiment: Activity of glucose-6-phosphatedehydrogenase in myocardium upon low-temperature treatment; type: in vivo, mice; details: 2.5 hours at -14° C.; 80 mg/kg (invention) or 64 mg/kg (ester); control 57.3 ± 1.3
Protocol: as §2

Compound: CN(C)CCOC(=O)CCC(=O)O [Butanedioic acid mono[(2-dimethylamino)ethyl ester]] [reference compound]
- Survival, %, 1 hour ([1]; 1 hour of cold at -15 to -17° C.): 100%
- Survival, %, 2 hours ([1]; 2 hours of cold at -15 to -17° C.): 90%
- Survival, %, 3 hours ([1]; 3 hours of cold at -15 to -17° C.): 70%
- Survival, %, 4 hours ([1]; 4 hours of cold at -15 to -17° C.): 50%
- Survival, %, 5 hours ([1]; 5 hours of cold at -15 to -17° C.): 20%
- Survival, %, 6 hours ([1]; 6 hours of cold at -15 to -17° C.): 10%
- Activity of glutamatedehydrogenase in myocardium (Glutamatedehydrogenase): 72.4 ± 0.6 relative units
- Lifespan in hours (at -17° C.), preliminary adaptation + preparation [2]: 6.2 ± 0.4 h
- Activity of pyruvatedehydrogenase in myocardium (Pyruvatedehydrogenase): 62.6 ± 3.5 relative units
- Glycogen, heart ([3]; control 1.7 ± 0.2): 2.4 ± 0.2 mg/g
- Glycogen, liver ([3]; control 6.7 ± 0.4): 10.2 ± 2.7 mg/g
- Blood glucose ([3]; control 37 ± 6): 75 ± 4 mg. %
- Liver glycogen ([4]; control 8.1 ± 0.6, intact 35.2 ± 4.5): 6.7 ± 0.8 mg/kg
- Blood glucose ([4]; control 42 ± 4, intact 79 ± 3): 64 ± 2 mg. %
- Creatine phosphate ([4]; myocardium, control 1.2 ± 0.08, intact 3.7 ± 0.3): 1.4 ± 0.04 μm/g
- Activity of succinatedehydrogenase in myocardium (Succinatedehydrogenase): 75.6 ± 2.4 relative units
- stresso-protective activity compared with the compound of the invention ([5]; in words): far less pronounced
- Weight coefficient of thymus ([5]; 10 mg/kg i.p. four times (invention, ester), control 0.95 ± 0.18, 10 mg/kg): 1.08 g/kg of the initial body mass
- Weight coefficient of adrenal glands ([5]; 10 mg/kg i.p. four times (invention, ester), control 1.246 ± 0.028, 10 mg/kg): 1.42 g/kg of the initial body mass
- Number of attempts till reaching the learning criterion (water labyrinth) ([5]; 10 mg/kg i.p. four times (invention, ester), control 4.75 ± 0.5, 10 mg/kg): 4.10
- Number of ulcers on the stomach mucous membrane ([5]; 10 mg/kg i.p. four times (invention, ester), control 5.25 ± 1.0, 10 mg/kg): 4.2
- Duration of swimming ([5]; 10 mg/kg i.p. four times (invention, ester), control 244 ± 26, 10 mg/kg): 325 s
- Activity of NADH2-dehydrogenase in myocardium (NADH2 --dehydrogenase): 70.8 ± 2.7 relative units
- Activity of NAD-Ph-H2-dehydrogenase in myocardium [6]: 76.4 ± 2.7 relative units
- Activity of isocitratedehydrogenase in myocardium (Isocitratedehydrogenase): 58.2 ± 1.4 relative units
- Activity of glucose-6-phosphatedehydrogenase in myocardium [7]: 60.2 ± 1.4 relative units
